Assay results taken from patent US5883092A, “Pyrimidine derivatives as endothelin antagonists” (Kowa Co., Ltd., priority 1995, dated 1999).
pIC50: −log10 of the molar value.

How the values were obtained:
ETA = target: T1, ETA (Sus scrofa, UniProt Q29010); assay: Endothelin binding inhibition experiment, 125I-endothelin-1 binding, ETA, membranes from smooth muscles of porcine thoracic aorta; settings: 125I-endothelin-1 2×10^-11 M, 2 hours at 25° C., pH 7.4
T1 construct: crude receptor membrane samples (ETA) from smooth muscles of porcine thoracic aorta; from tissue; host or cells: porcine thoracic aorta smooth muscle, endothelium removed; crude membranes
T1 sequence (Q29010 21-427): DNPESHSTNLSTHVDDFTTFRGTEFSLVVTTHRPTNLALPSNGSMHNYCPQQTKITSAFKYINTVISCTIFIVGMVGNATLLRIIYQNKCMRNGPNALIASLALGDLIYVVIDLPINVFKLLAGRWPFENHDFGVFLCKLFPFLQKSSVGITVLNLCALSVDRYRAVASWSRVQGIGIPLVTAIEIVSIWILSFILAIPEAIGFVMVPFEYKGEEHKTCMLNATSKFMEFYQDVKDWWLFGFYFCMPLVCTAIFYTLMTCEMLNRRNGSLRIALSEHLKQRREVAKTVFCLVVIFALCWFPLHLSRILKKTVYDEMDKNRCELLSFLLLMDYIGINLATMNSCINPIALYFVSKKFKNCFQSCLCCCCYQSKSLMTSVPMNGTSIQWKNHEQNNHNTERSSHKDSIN
Description: (§1) Endothelin binding inhibition experiment
Preparation of crude receptor membrane samples (ETA) from smooth muscles of porcine thoracic aorta:
Porcine thoracic aorta which was separated from the fatty tissue and then was removed endothelium with gauze was minced, and then homogenized in three times the volume of Tris-HCl buffer (pH 7.4) (buffer A) containing 0.25M sucrose, 3 mM ethylenediaminetetraacetic acid, 5 μg/ml of aprotinin, 10 μg/ml of pepstatin A, 10 μg/ml of leupeptin, and 0.1 μM p-amidinophenylmethanesulfonyl fluoride. After centrifugation for 30 minutes at 1,000×g, the supernatant was further centrifuged for 30 minutes at 100,000×g. The pellets were suspended in buffer A, and recentrifuged for 30 minutes at 100,000×g. The pellets were suspended in buffer A and the suspension was stored at -80° C. ^125 I-Endothelin-1 binding assay:
The thus-obtained membrane sample (1 μl) was incubated together with ^125 I-endothelin-1 (2×10^-11 M) and various concentrations of the compounds, for 2 hours at 25° C., in 250 μl in total volume of 50 mM Tris-HCl buffer (pH 7.4) containing 0.5% bovine serum albumin. The incubated mixture was filtered by use of HVPP filters (pore size 0.45 μm, product of Milipore). The filters were washed with cold buffer A four times, and then measured with a gamma-ray counter (Aroka Autowell Gamma System ARC-251). Preparation of crude receptor membrane samples (ETB) from rat brain and assay of ^125 I endothelin-1: […]

ETB = target: T2, ETB (Rattus norvegicus, UniProt P21451); assay: Endothelin binding inhibition experiment, 125I-endothelin-1 binding, ETB, membranes from rat brain; settings: 125I-endothelin-1 2×10^-11 M, 2 hours at 25° C., pH 7.4
T2 construct: Rat brain tissue was minced, and a crude receptor membrane sample was prepared; from tissue; host or cells: rat brain; crude membranes
T2 sequence (P21451 27-442): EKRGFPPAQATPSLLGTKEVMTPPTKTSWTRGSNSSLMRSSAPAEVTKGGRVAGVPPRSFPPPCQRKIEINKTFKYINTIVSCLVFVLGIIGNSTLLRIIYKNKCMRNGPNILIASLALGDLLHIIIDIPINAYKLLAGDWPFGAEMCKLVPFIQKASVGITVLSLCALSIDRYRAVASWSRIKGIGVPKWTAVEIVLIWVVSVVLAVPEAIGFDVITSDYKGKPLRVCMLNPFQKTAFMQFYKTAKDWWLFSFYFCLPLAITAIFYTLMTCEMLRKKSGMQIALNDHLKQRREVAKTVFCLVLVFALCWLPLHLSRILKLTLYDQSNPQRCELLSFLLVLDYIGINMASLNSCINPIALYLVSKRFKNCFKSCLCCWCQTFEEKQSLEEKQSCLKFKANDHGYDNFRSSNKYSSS
Description: as §1
The thus-obtained membrane sample (1 μl) was incubated together with ^125 I-endothelin-1 (2×10^-11 M) and various concentrations of the compounds, for 2 hours at 25° C., in 250 μl in total volume of 50 mM Tris-HCl buffer (pH 7.4) containing 0.5% bovine serum albumin. The incubated mixture was filtered by use of HVPP filters (pore size 0.45 μm, product of Milipore). The filters were washed with cold buffer A four times, and then measured with a gamma-ray counter (Aroka Autowell Gamma System ARC-251). Preparation of crude receptor membrane samples (ETB) from rat brain and assay of ^125 I endothelin-1:
Rat brain tissue was minced, and a crude receptor membrane sample was prepared in a manner similar to that used in the aforementioned case of porcine thoracic aorta. Also, ^125 I-endothelin-1 assay was performed in the same manner as described above.

Row | Compound | pIC50 (ETA) | pIC50 (ETB)
1 | COc1ccccc1Oc1c(NS(=O)(=O)c2ccc(C(C)(C)C)cc2)nc(N2CCOCC2)nc1OCCC(=O)Nc1ccccc1C(C)C [Example 2, N-(2-isopropylphenyl)-3-[6-(4-t-butylphenylsulfonylamino)-5-(2-methoxyphenoxy)-2-morpholino-4-pyrimidinyloxy]propionamide] | 7.20 | 9.07
2 | COc1ccccc1Oc1c(NS(=O)(=O)c2ccc(C(C)(C)C)cc2)nc(N2CCOCC2)nc1OCCC(=O)Nc1ccccn1 [Example 3, N-(2-pyridyl)-3-[6-(4-t-butylphenylsulfonylamino)-5-(2-methoxyphenoxy)-2-morpholino-4-pyrimidinyloxy]propionamide] | 7.49 | 7.54
3 | COc1ccccc1Oc1c(NS(=O)(=O)c2ccc(C(C)(C)C)cc2)nc(N2CCN(C=O)CC2)nc1OCCC(=O)Nc1ccccc1C(C)C [Example 13, N-(2-isopropylphenyl)-3-[6-(4-t-butylphenylsulfonylamino)-2-(4-formylpiperazinyl)-5-(2-methoxyphenoxy)-4-pyrimidinyloxy]-propionamide] | 7.17 | 8.27
4 | COc1ccccc1Oc1c(NS(=O)(=O)c2ccc(C(C)(C)C)cc2)nc(N2CCOCC2)nc1OCCC(=O)OCc1ccccc1 [Example 23, benzyl 3-[6-(4-t-butylphenylsulfonylamino)-5-(2-methoxyphenoxy)-2-morpholino-4-pyrimidinyloxy]propionate] | 6.62 | 8.29
